Assay results: patent US11707440B2 (priority 2017, dated 2023)

Tests used:
[1] = tested on: patients with treatment-resistant depression (TRD); assay: CGI-S, Example 7; format: in vivo, human
Procedure: Overall illness severity was assessed on the Clinical Global Impression of Severity (CGI-S) scale (Guy, “ECDEU Assessment Manual for Psychopharmacology-Revised (DHEW Publ No ADM 76-338)”, Rockville, Md.: U.S. Department of Health, Education, and Welfare, Public Health Service, Alcohol, Drug Abuse, and Mental Health Administration, NIMH Psychopharmacology Research Branch, Division of Extramural Research Programs; 1976, pp 218-222). Participants assessed their severity of anxiety on the Generalized Anxiety Disorder 7-item (GADS-7) Scale (See, Tables 157 and 15). See, Spitzer, “A brief measure for assessing generalized anxiety disorder—the GAD-7”, Arch. Intern. Med., 2006, 166(10):1092-1097.

[2] = From the text: This example provides an LC-MS/MS method for the determination of ketamine and norketamine in sodium heparin human plasma using ketamine-d4 and norketamine-d4 as the respective internal standards (IS).
subjects with TRD = conditions: human, in vivo, other: intranasal
Procedure: The Clinician Administered Dissociative States Scale (CADSS) was measured prior to the start of each dose, at 40 minutes, and 1.5 hours postdose.

glutamate NMDA receptor = conditions: in vitro; cited from earlier work

SMILES: CN[C@]1(c2ccccc2Cl)CCCCC1=O [esketamine, (S)-2-(2-chlorophenyl)-2-(methylamino)cyclohexanone]
- CGI-S Median Change ([1]; 28 mg, Period 1, first day to day 8): −1.0
- CGI-S Median ([1]; 28 mg, Period 1 end point): 4.0
- CGI-S Median Change ([1]; 28 mg, Period 2, first day to day 8 of period): −1.0
- CGI-S Median ([1]; 28 mg, Period 2 end point): 4.0
- CGI-S Median Change ([1]; 56 mg, Period 1, first day to day 8): −1.0
- CGI-S Median ([1]; 56 mg, Period 1 end point): 4.0
- CGI-S Median Change ([1]; 56 mg, Period 2, first day to day 8 of period): −1.0
- CGI-S Median ([1]; 56 mg, Period 2 endpoint): 5.0
- CGI-S Median Change ([1]; 84 mg, Period 1, first day to day 8): −0.5
- CGI-S Median ([1]; 84 mg, Period 1 end point): 4.0
- CGI-S Median Change ([1]; 84 mg, Period 2, first day to day 8 of period): −1.0
- CGI-S Median ([1]; 84 mg, Period 2 endpoint): 4.0
- QC sample freeze/thaw stability ([2]; freeze (−20° C.)/thaw (room temperature)): 3 freeze (−20° C.)/thaw (room temperature) cycles
- QC sample bench-top stability ([2]; human plasma, room temperature): 18 hours at room temperature
- Time to resolution of dissociative and perceptual change symptoms (CADSS) (subjects with TRD): ≤ 1.5 hours postdose
- Greater affinity for the glutamate NMDA receptor than R-ketamine (glutamate NMDA receptor): 3 to 4 fold
